Test results reported in patent publication US12396961B2, “Compounds and compositions for intracellular delivery of agents” (ModernaTX, Inc., priority 2015, dated 2025).
Entries after “also recorded” stand apart in the source; their conditions may differ. Blank lines part the entries; values can stand above or below the compound they belong to.

How the values were obtained:
hEPO mRNA expression [1] = test: Expression of hEPO after intravenous administration to rats; type: in vivo; conditions: for hEPO expression in rats (FIG. 8): 2 mpk, i.v. (Graph A), in words; for hEPO (pg/mL) 3 hours / hEPO (pg/mL) 6 hours / hEPO (pg/mL) 24 hours: Table 6, rats i.v. 0.2 or 0.5 mg/kg
Experimental: PBS (phosphate buffered saline) is used as control.
Formulations were prepared according to Table 5 and included mRNA encoding hEPO.
[…] After the 48 hour time point, livers and spleens were harvested and frozen.

[2] = tested on: LDLr mRNA / Luc expression; test: Expression (AUC) in LDLr−/− mice relative to KL22; type: in vivo; conditions: Table 7b
rats = test: Tolerability / toxicity in rats dosed i.v. with hEPO mRNA LNP; type: in vivo; conditions: 2 mg/kg dose
[3] = Encapsulation efficiency of RNA (QUANT-IT RIBOGREEN RNA assay); type: physicochemical
Description: The efficiency of encapsulation of a therapeutic and/or prophylactic agent describes the amount of therapeutic and/or prophylactic agent that is encapsulated or otherwise associated with a nanoparticle composition after preparation, relative to the initial amount provided. The encapsulation efficiency is desirably high (e.g., close to 100%). The encapsulation efficiency may be measured, for example, by comparing the amount of therapeutic and/or prophylactic agent in a solution containing the nanoparticle composition before and after breaking up the nanoparticle composition with one or more organic solvents or detergents. Fluorescence may be used to measure the amount of free therapeutic and/or prophylactic agent (e.g., RNA) in a solution. […]
For nanoparticle compositions including an RNA, a QUANT-IT™ RIBOGREEN® RNA assay (Invitrogen Corporation Carlsbad, CA) can be used to evaluate the encapsulation of an RNA by the nanoparticle composition. […] The fluorescence intensity can be measured using a fluorescence plate reader (Wallac Victor 1420 Multilablel Counter; Perkin Elmer, Waltham, MA) at an excitation wavelength of, for example, about 480 nm and an emission wavelength of, for example, about 520 nm. […]

[4] = Particle size and polydispersity index (Zetasizer Nano ZS); type: physicochemical; conditions: for PDI: DOPE 40:20:38.5:1.5, Luc mRNA
Outline: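 Particle size and polydispersity index were measured by dynamic light scattering on a Zetasizer Nano ZS in 1×PBS. Zeta potential was measured in 15 mM PBS.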

[5] = tested on: luciferase (Luc) mRNA expression; test: Luc expression (AUC) in CD-1 mice relative to MC3; type: in vivo; conditions: for Lipid/MC3 Luc CD-1 (mice): Luc expression relative to MC3, CD-1 mice; for Lipid/MC3 AUC CD-1 mice 0.5 mpk: Table 7b, Luc expression
Outline: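 CD-1 mice dosed at 0.5 mpk with nanoparticle compositions carrying luciferase mRNA; total light flux acquired by whole-body luminescent imaging 6 h after administration. Expression referenced to MC3-containing composition.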

LDL-c = test: LDL (LDL-c) levels in LDLr−/− mice after mRNA encoding the LDL receptor; type: in vivo, LDLR knockout mice; conditions: Compound 11 at 0.5 and 1 mpk
[6] = Lipid levels (clearance) in liver and spleen 48 hours after administration; type: in vivo, rats; conditions: rat liver, 48 h
Experimental: Formulations were administered intravenously to rats (n=3 or 6) at a dosage of 0.2 mg/kg or 0.5 mg/kg (mpk) and hEPO levels measured at 3, 6, and 24 hour time points. After the 48 hour time point, livers and spleens were harvested and frozen.
The amount of lipid in the liver and spleen 48 hours after administration of a nanoparticle composition was also measured. […] In contrast, approximately 60% of doses including MC3 or Compound 22 remained in the liver after 48 hours. Less than 3% of the dose remained in the spleen for each composition tested.

[7] = tested on: luciferase (Luc) mRNA expression; test: Expression of Luc in different organs (liver, lung, spleen, femur) 6 hours after intravenous administration; type: in vivo; conditions: mice i.v. 0.5 mpk, 0.5 mg/kg
Experimental: The efficacy of the nanoparticle compositions presented in Tables 1, la, 17-1, 19-1, 20-1 and 21-1 was further evaluated by measuring the expression of modified luciferase in the liver, lung, spleen, and femur upon administration of a given composition. Formulations were administered intravenously to mice (n=3) at a dosage of 0.5 mpk and bioluminescence measured after 6 hours. The standard MC3 formulation and a PBS control were also tested.

[8] = tested on: GFP mRNA expression in liver cells; test: Mouse liver immunohistochemistry (IHC) of GFP after GFP mRNA LNP; type: in vivo, CD-1 mouse; LDLR knockout mouse; conditions: i.v. 0.5 mpk; MC3: CD-1 mouse, 6h; Compound 4: LDLR knockout mouse, 8h
Experimental: FIG. 11 is a pair of images comparing the results of a mouse liver immunohistochemistry (IHC) using mRNA expressing green fluorescent protein (GFP) after administration of nanoparticle compositions containing Compound 4 and MC3.
FIG. 16 is a graph showing GFP levels in the livers of LDLR knockout mice at 30 min to 24 h after intravenous administration of an eGFP RNA in a lipid composition containing Compound 4. The liver GFP levels were determined via IHC. The square markers represent the number of GFP positive cells following administration of a dose of 0.1 mpk of the composition. The circular markers represent the number of GFP positive cells following administration of a dose of 0.5 mpk of the composition.

[9] = tested on: luciferase (Luc) mRNA expression; test: Expression of Luc, bioluminescence (total flux) after intravenous administration to mice; type: in vivo
Experimental: In order to monitor how effectively various nanoparticle compositions deliver therapeutic and/or prophylactic agents to targeted cells, different nanoparticle compositions including a particular therapeutic and/or prophylactic agent (for example, a modified or naturally occurring RNA such as an mRNA) are prepared and administered to rodent populations. Mice are intravenously, intramuscularly, intraarterially, or intratumorally administered a single dose including a nanoparticle composition with a formulation such as those provided in Table 1. In some instances, mice may be made to inhale doses. Dose sizes may range from 0.001 mg/kg to 10 mg/kg, where 10 mg/kg describes a dose including 10 mg of a therapeutic and/or prophylactic agent in a nanoparticle composition for each 1 kg of body mass of the mouse. A control composition including PBS may also be employed.
Upon administration of nanoparticle compositions to mice, dose delivery profiles, dose responses, and toxicity of particular formulations and doses thereof can be measured by enzyme-linked immunosorbent assays (ELISA), bioluminescent imaging, or other methods. For nanoparticle compositions including mRNA, time courses of protein expression can also be evaluated. Samples collected from the rodents for evaluation may include blood, sera, and tissue (for example, muscle tissue from the site of an intramuscular injection and internal tissue); sample collection may involve sacrifice of the animals.
The efficacy of the nanoparticle compositions presented in Tables 1, la, 17-1, 19-1, 20-1 and 21-1 was evaluated with a bioluminescence study. Formulations were administered intravenously to mice (n=6) at a dosage of 0.5 mg/kg (mpk) and bioluminescence measured at 3, 6, and 24 hour time points. The standard MC3 formulation and a PBS control were evaluated for comparison.

hEPO mRNA expression [10] = test: hEPO levels in non-human primates; type: in vivo
Experimental: FIG. 10 is a graph showing hEPO levels in non-human primates up to −50 h after administration of a nanoparticle composition containing Compound 4, compared to a composition containing MC3.
The tolerability and efficacy of nanoparticle compositions to non-human primates is evaluated in Cynomolgus monkeys. Monkeys are administered an optimized nanoparticle composition including an mRNA encoding hEPO once weekly for four weeks. The levels of hEPO protein, mRNA, and cytokine profiles are measured using ELISA-based techniques before and 2, 6, 12, 24, 48, 72, and 120 hours after each administration.

Compound: CCCCCCCCCCCCN(CCCCCCCCCCCC)CCN(CCCCCCCCCCCC)CCN1CCN(CCN(CCCCCCCCCCCC)CCCCCCCCCCCC)CC1 [KL22, N1-[2-(didodecylamino)ethyl]-N1,N4,N4-tridodecyl-1,4-piperazinediethanamine, reference compound]
hEPO expression in rats (FIG. 8) (hEPO mRNA expression [1]): do not express hEPO in rats
Lipid/KL22 AUC LDLr−/− mice 0.5 mpk, LDLr [2]: 1
Tolerability / toxicity in rats (FIG. 8) (rats): toxic

EE (%) ([3]; Table 1, DOPE 40:20:38.5:1.5, Luc mRNA): 97.0%
Size (nm) ([4]; Table 1, lipid:DOPE:Chol:PEG-DMG 40:20:38.5:1.5, Luc mRNA, MC3 standard formulation): 90.0 nm
Compound: CCCCC/C=C\CCCCCN(CCCCC/C=C\CCCCC)CCN1CCN(CCN(CCCCCCCCCCCC)CCN(CCCCCCCCCCCC)CCCCCCCCCCCC)CC1 [Compound 25, N^1-(2-(4-(2-(Di((Z)-dodec-6-en-1-yl)amino)ethyl)piperazin-1-yl)ethyl)-N^1,N^2,N^2-tridodecylethane-1,2-diamine]

Compound: CCCCCCCCCCCCN(CCCCCCCCCCCC)CCN(CCCCCCCCCCCC)CC(=O)N1CCN(C(=O)CN(CCCCCCCCCCCC)CCCCCCCCCCCC)CC1 [Compound 11, 2-(Didodecylamino)-1-(4-(N-(2-(didodecylamino)ethyl)-N-dodecylglycyl)piperazin-1-yl)ethan-1-one]
hEPO expression in rats (FIG. 8) (hEPO mRNA expression [1]): comparable to MC3
Tolerability / toxicity in rats (FIG. 8) (rats): improved tolerability as compared to KL22
Lipid/MC3 Luc CD-1 (mice) [5]: 1.03
LDL-c levels in LDLR knockout mice (FIG. 9B) (LDL-c): found to drop
PDI ([4]; Table 1): 0.099

% dose remaining Rat liver (48 h) [6]: 43.11%
Size (nm) ([4]; Table 20-1): 84.0 nm
Compound: CCCCCC=CCC=CCCCCCCCCC(CCCCCCCCC=CCC=CCCCCC)OC(=O)CCCN(C)C (centres unmarked) [MC3, heptatriaconta-6,9,28,31-tetraen-19-yl 4-(dimethylamino)butanoate, reference compound]
hEPO expression at each time point, comparison in words (Table 6) (hEPO mRNA expression [1]; rats i.v., 3, 6, 24 hours): highest hEPO expression
Lipid/KL22 AUC LDLr−/− mice 0.5 mpk, LDLr [2]: 0.15
Total flux in organs, comparison in words over the organs of the table named [7]: highest total flux; also recorded: highest expression in each organ
GFP protein expression in liver cell types (IHC, FIG. 11) [8]: observed in both hepatocytes and Kupffer cells
Lipid/MC3 Luc CD-1 (mice) [5]: 1
Lipid/MC3 AUC CD-1 mice 0.5 mpk [5]: 1
Total flux (Luc expression), comparison in words over the time points of the table named ([9]; mice i.v. 0.5 mg/kg, 3, 6, 24 hours, 0.5 mg/kg): highest total flux; also recorded: highest luciferase expression

Compound: CCCCCCCCCCCCN(CCCCCCCCCCCC)CCN(CCCCCCCCCCCC)CCN1CCN(CCN(CCCCCCCCC)CCCCCCCCC)CC1 [Compound 23, N^1-(2-(4-(2-(Dinonylamino)ethyl)piperazin-1-yl)ethyl)-N^1,N^2,N^2 tridodecylethane-1,2-diamine]
hEPO (pg/mL) 3 hours (hEPO mRNA expression [1]; DOPE formulation of Table 5): 249213 pg/mL
hEPO (pg/mL) 6 hours (hEPO mRNA expression [1]; DOPE formulation of Table 5): 275440 pg/mL
hEPO (pg/mL) 24 hours (hEPO mRNA expression [1]; DOPE formulation of Table 5): 120104 pg/mL
hEPO (pg/mL) 3 hours (hEPO mRNA expression [1]; DSPC formulation of Table 5): 86627 pg/mL
hEPO (pg/mL) 6 hours (hEPO mRNA expression [1]; DSPC formulation of Table 5): 71360 pg/mL
hEPO (pg/mL) 24 hours (hEPO mRNA expression [1]; DSPC formulation of Table 5): 29008 pg/mL
Tolerability / toxicity in rats (FIG. 8) (rats): toxic
PDI ([4]; Table 1): 0.058
Luc expression in mice compared with MC3 (Table 7a) ([9]; mice, in words): several fold higher

% dose remaining Rat liver (48 h) [6]: 37.82%
PDI ([4]; Table 1): 0.120
Compound: CCCCCCCCCN(CCCCCCCCC)CCN(CCCCCCCCC)CC(=O)N1CCN(C(=O)CN(CCCCCCCCC)CCCCCCCCC)CC1 [Compound 4, 2-(Dinonylamino)-1-(4-(N-(2-(dinonylamino)ethyl)-N-nonylglycyl)piperazin-1-yl)ethan-1-one]
hEPO expression compared to MC3 (FIG. 10) (hEPO mRNA expression [10]): 3 fold
Lipid/KL22 AUC LDLr−/− mice 0.5 mpk, LDLr [2]: 2.03
GFP protein expression in liver cell types (IHC, FIG. 11) [8]: less protein expression in Kupffer cells
Lipid/MC3 AUC CD-1 mice 0.5 mpk [5]: 3.70

EE (%) ([3]; Table 1, marked *: lipid:DSPC:Chol:PEG-DMG 50:10:38.5:1.5): 96%
Compound: CCCCCCCCCCCCN(CCCCCCCCCCCC)CCN1CCN(C(=O)CN(CCCCCCCCCCCC)CCN(CCCCCCCCCCCC)CCCCCCCCCCCC)CC1 [Compound 2, 2-((2-(Didodecylamino)ethyl)(dodecyl)amino)-1-(4-(2-(didodecylamino)ethyl)piperazin-1-yl)ethan-1-one]
